Measurements from US11845747B2, “Ester and carbonate pyrimidine compounds as JAK kinase inhibitors” (priority 2019, dated 2023).
Converted amounts (≈) assume the structure as drawn.

Key:
physchem = type: physicochemical; settings: pH 7.4, aqueous buffer, thermodynamic from solid
Method: Assay 4: Aqueous Solubility Assay The purpose of this assay was to quantify the solubility of test compounds in pH 4 and pH 7.4 PBS buffers. The assay required 40 μL of 10 mM DMSO test compound solution per desired buffer in addition to 20 μL required to make a test standard. For example, to test a compound in both buffers, 100 μL (2*40 μL+20 μL) of 10 mM DMSO compound stock solution was required. The standard was created by diluting 20 μL of 10 mM DMSO compound stock solution into 180 μL of methanol and was shaken for five minutes to ensure solution uniformity. […] This 1,000 μM solution was run on an Agilent 1260 LC-MS system by injecting 2 μL in order to obtain the peak area. For the test solutions, 40 μL of 10 mM DMSO compound stock solution, per PBS buffer condition, were dried down into a powder overnight. Once in powder form, 400 μL of the desired PBS buffer was added to the powder and allowed to shake vigorously for four hours. The maximum theoretical concentration for this sample solution was 1,000 μM. After four hours of shaking, the samples were centrifuged for 10 minutes at 3,000 RPM before injecting 2 μL on the same Agilent 1260 LC-MS system to obtain the peak area. […]

JAK1 = molecular target: T1, JAK1 (Homo sapiens, UniProt P23458); test: Biochemical LanthaScreen JAK1 kinase assay; settings: Km ATP 25 μM; pKi from pIC50 by Cheng-Prusoff; read-out: JAK 1 (pKi) (converted)
T1 construct: GST; purchased Life Technologies
Method: (§1) Assay 1: Biochemical JAK and Tyk2 Kinase Assays A panel of four LanthaScreen JAK biochemical assays (JAK1, 2, 3 and Tyk2) were carried in a common kinase reaction buffer (50 mM HEPES, pH 7.5, 0.01% Brij-35, 10 mM MgCl2, and 1 mM EGTA). Recombinant GST-tagged JAK enzymes and a GFP-tagged STAT1 peptide substrate were obtained from Life Technologies. Serially or discretely diluted compounds were pre-incubated with each of the four JAK enzymes and the substrate in white 384-well microplates (Corning) at ambient temperature for 1 h. ATP was subsequently added to initiate the kinase reactions in 10 μL total volume, with 1% DMSO. […] Kinase reactions were allowed to proceed for 1 hour at ambient temperature before a 10 μL preparation of EDTA (10 mM final concentration) and Tb-anti-pSTAT1 ([…]) antibody (Life Technologies, 2 nM final concentration) in TR-FRET dilution buffer (Life Technologies) was added. The plates were allowed to incubate at ambient temperature for 1 h before being read on the EnVision reader (Perkin Elmer). Emission ratio signals (520 nm/495 nm) were recorded and utilized to calculate the percent inhibition values based on DMSO and background controls. For dose-response analysis, percent inhibition data were plotted vs. compound concentrations, and IC50 values were determined from a 4-parameter robust fit model with the Prism software (GraphPad Software). Results were expressed as pIC50 (negative logarithm of IC50) and subsequently converted to pKi (negative logarithm of dissociation constant, Ki) using the Cheng-Prusoff equation.

JAK3 = molecular target: T2, JAK3 (Homo sapiens, UniProt P52333); test: Biochemical LanthaScreen JAK3 kinase assay; settings: Km ATP 1.6 μM; pKi from pIC50 by Cheng-Prusoff; read-out: JAK 3 (pKi) (converted)
T2 construct: GST; purchased Life Technologies
T2 sequence (P52333 1-1124): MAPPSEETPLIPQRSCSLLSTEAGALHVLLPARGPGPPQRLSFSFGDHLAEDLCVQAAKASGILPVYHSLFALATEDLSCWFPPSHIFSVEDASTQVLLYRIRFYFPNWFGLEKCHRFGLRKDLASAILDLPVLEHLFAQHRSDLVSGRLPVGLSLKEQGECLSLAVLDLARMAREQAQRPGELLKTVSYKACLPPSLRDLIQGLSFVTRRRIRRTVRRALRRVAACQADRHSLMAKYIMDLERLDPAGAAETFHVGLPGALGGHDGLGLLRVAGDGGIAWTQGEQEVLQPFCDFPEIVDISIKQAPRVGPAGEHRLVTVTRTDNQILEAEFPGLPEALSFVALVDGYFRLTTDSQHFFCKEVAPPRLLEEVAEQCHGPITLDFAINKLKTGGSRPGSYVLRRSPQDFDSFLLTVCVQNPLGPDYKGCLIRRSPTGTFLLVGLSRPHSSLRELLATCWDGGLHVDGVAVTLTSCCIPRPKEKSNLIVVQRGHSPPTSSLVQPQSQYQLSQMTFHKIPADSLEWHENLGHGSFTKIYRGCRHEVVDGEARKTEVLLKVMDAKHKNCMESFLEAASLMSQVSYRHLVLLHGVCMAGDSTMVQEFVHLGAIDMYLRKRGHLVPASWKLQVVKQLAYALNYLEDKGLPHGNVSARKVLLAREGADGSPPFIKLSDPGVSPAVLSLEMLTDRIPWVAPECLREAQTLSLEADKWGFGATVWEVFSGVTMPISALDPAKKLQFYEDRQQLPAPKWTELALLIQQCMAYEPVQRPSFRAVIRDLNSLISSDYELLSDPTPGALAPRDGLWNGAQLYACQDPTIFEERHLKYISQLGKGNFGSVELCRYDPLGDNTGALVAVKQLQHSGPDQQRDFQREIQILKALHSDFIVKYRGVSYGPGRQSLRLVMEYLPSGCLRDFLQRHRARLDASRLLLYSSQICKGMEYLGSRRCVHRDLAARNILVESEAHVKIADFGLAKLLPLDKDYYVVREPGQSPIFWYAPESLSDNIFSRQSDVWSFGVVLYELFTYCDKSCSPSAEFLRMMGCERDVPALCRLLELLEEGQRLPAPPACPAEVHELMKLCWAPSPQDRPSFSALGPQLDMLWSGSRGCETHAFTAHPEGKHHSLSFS
Method: as §1

in vitro = in vitro ADME; settings: human, microsomes, pH 7.4
Method: Assay 3: Human Liver Microsome Assay The objective of this assay was to assess the metabolic stability of test compounds in an in vitro human liver sub-fraction. Human liver microsomes obtained from Bioreclamation-IVT (Baltimore, Md.) were thawed on ice and diluted into 0.1M potassium phosphate buffer pH 7.4 to yield final incubation protein concentrations of 0.1 mg/mL. Test compounds (10 mM) were diluted into NADPH cofactor to yield final incubation concentrations of 0.1 μM test compound and 1 mM NADPH. Incubations were conducted at 37° C. temperature and test aliquots were taken at time points 0, 5, 8, 15, 30 and 45 minutes. […] The resulting samples were injected onto an LC-MS/MS system for analysis. For each incubation, the peak area of the analytes in each t0 aliquot was set to 100% and the peak areas from subsequent time point aliquots were converted to percentage of parent compound remaining relative to t0. The percentage of parent compound remaining was converted to natural log scale and plotted versus time in minutes. A linear regression analysis was performed for the initial decline of the parent disappearance profile and a formula for the best-fit line determined. The slope of the resultant line was normalized to protein concentration in mg/mL protein or number of cells/mL and CLint was calculated as follows for liver microsomes: CLint(μL·min^−1·mg^−1)=(Slope×1000)/[protein, mg/mL]

T1 sequence (P23458 whole entry): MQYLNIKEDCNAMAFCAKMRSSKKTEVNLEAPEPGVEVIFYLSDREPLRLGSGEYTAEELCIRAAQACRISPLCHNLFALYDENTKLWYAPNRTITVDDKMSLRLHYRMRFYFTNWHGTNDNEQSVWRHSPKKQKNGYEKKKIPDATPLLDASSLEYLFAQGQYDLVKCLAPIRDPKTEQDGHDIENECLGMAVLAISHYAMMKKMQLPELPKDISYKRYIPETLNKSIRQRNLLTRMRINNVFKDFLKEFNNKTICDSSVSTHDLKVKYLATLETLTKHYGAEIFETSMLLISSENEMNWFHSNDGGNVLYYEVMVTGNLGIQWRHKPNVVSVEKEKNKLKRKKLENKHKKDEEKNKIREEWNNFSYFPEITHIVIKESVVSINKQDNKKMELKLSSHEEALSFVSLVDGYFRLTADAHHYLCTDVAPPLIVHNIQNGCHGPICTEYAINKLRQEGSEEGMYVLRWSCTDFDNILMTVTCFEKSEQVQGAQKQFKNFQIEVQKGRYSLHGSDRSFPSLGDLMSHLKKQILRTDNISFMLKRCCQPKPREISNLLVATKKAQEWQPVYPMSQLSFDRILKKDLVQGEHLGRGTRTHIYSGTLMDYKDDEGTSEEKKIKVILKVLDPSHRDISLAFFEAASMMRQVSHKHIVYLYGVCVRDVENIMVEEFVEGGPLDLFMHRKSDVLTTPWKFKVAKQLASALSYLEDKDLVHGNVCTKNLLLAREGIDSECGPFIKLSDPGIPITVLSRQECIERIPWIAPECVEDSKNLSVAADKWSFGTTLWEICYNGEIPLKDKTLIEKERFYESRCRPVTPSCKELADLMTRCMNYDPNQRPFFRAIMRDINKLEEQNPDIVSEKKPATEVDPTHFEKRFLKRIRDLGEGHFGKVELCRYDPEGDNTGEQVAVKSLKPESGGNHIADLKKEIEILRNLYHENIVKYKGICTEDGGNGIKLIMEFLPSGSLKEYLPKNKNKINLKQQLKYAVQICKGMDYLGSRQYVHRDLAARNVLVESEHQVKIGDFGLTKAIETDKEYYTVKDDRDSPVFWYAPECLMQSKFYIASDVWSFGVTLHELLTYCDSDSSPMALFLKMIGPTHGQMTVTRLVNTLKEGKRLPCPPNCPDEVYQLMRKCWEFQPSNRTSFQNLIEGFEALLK

Structure (SMILES) | solubility at 4 h (physchem) | Ki (JAK1) | Ki (JAK3) | microsomal CLint at 0.1 μM (in vitro)
CCCCCCC(=O)OCc1nc(N(C)[C@@H]2C[C@H]3CCC[C@@H](C2)N3S(=O)(=O)CC)nc(Nc2cc(C)[nH]n2)c1F [Compound 5, (2-(((1R,3s,5S)-9-(ethylsulfonyl)-9-azabicyclo[3.3.1]nonan-3-yl)(methyl)amino)-5-fluoro-6-((5-methyl-1H-pyrazol-3-yl)amino)pyrimidin-4-yl)methyl heptanoate] | 10 to 50 µM (≈ 5.8 to 29 µg/mL) | 1 to 10 nM | 10 to 100 nM | 
CCS(=O)(=O)N1[C@@H]2CCC[C@H]1C[C@H](N(C)c1nc(COC(=O)OC3CCOCC3)c(F)c(Nc3cc(C)[nH]n3)n1)C2 [Compound 9, (2-(((1R,3s,5S)-9-(ethylsulfonyl)-9-azabicyclo[3.3.1]nonan-3-yl)(methyl)amino)-5-fluoro-6-((5-methyl-1H-pyrazol-3-yl)amino)pyrimidin-4-yl)methyl (tetrahydro-2H-pyran-4-yl) carbonate] | 100 to 1000 µM (≈ 59.6 to 596 µg/mL) | 0.1 to 1 nM | 1 to 10 nM | > 2500 µL/min/mg
CCCC(=O)OCc1nc(N(C)[C@@H]2C[C@H]3CCC[C@@H](C2)N3S(=O)(=O)CC)nc(Nc2cc(C)[nH]n2)c1F [Compound 3, (2-(((1R,3s,5S)-9-(ethylsulfonyl)-9-azabicyclo[3.3.1]nonan-3-yl)(methyl)amino)-5-fluoro-6-((5-methyl-1H-pyrazol-3-yl)amino)pyrimidin-4-yl)methyl butyrate] | 10 to 50 µM (≈ 5.38 to 26.9 µg/mL) | 0.1 to 1 nM | 1 to 10 nM | 
CCS(=O)(=O)N1[C@@H]2CCC[C@H]1C[C@H](N(C)c1nc(COC(=O)OC3CCCCC3)c(F)c(Nc3cc(C)[nH]n3)n1)C2 [Compound 6, cyclohexyl ((2-(((1R,3s,5S)-9-(ethylsulfonyl)-9-azabicyclo[3.3.1]nonan-3-yl)(methyl)amino)-5-fluoro-6-((5-methyl-1H-pyrazol-3-yl)amino)pyrimidin-4-yl)methyl) carbonate] | 10 to 50 µM (≈ 5.94 to 29.7 µg/mL) | 1 to 10 nM | 10 to 100 nM | 
CCS(=O)(=O)N1[C@@H]2CCC[C@H]1C[C@H](N(C)c1nc(CO)c(F)c(Nc3cc(C)[nH]n3)n1)C2 [Compound M, (2-(((1R,3s,5S)-9-(ethylsulfonyl)-9-azabicyclo[3.3.1]nonan-3-yl)(methyl)amino)-5-fluoro-6-((5-methyl-1H-pyrazol-3-yl)amino)pyrimidin-4-yl)methanol] | 10 to 50 µM (≈ 4.68 to 23.4 µg/mL) | ≤ 0.1 nM | 0.1 to 1 nM | 132 µL/min/mg
CCS(=O)(=O)N1[C@@H]2CCC[C@H]1C[C@H](N(C)c1nc(COC(C)=O)c(F)c(Nc3cc(C)[nH]n3)n1)C2 [Compound 1, (2-(((1R,3s,5S)-9-(ethylsulfonyl)-9-azabicyclo[3.3.1]nonan-3-yl)(methyl)amino)-5-fluoro-6-((5-methyl-1H-pyrazol-3-yl)amino)pyrimidin-4-yl)methyl acetate] | 10 to 50 µM | 0.1 to 1 nM | 0.1 to 1 nM | 
CCS(=O)(=O)N1[C@@H]2CCC[C@H]1C[C@H](N(C)c1nc(COC(=O)C3CCOCC3)c(F)c(Nc3cc(C)[nH]n3)n1)C2 [Compound 7, (2-(((1R,3s,5S)-9-(ethylsulfonyl)-9-azabicyclo[3.3.1]nonan-3-yl)(methyl)amino)-5-fluoro-6-((5-methyl-1H-pyrazol-3-yl)amino)pyrimidin-4-yl)methyl tetrahydro-2H-pyran-4-carboxylate] | 100 to 1000 µM (≈ 58 to 580 µg/mL) | 0.1 to 1 nM | 0.1 to 1 nM | > 2500 µL/min/mg
CCCCC(=O)OCc1nc(N(C)[C@@H]2C[C@H]3CCC[C@@H](C2)N3S(=O)(=O)CC)nc(Nc2cc(C)[nH]n2)c1F [Compound 4, (2-(((1R,3s,5S)-9-(ethylsulfonyl)-9-azabicyclo[3.3.1]nonan-3-yl)(methyl)amino)-5-fluoro-6-((5-methyl-1H-pyrazol-3-yl)amino)pyrimidin-4-yl)methyl pentanoate] | 50 to 100 µM (≈ 27.6 to 55.2 µg/mL) | 0.1 to 1 nM | 1 to 10 nM | 
CCS(=O)(=O)N1[C@@H]2CCC[C@H]1C[C@H](N(C)c1nc(COC(=O)OC(C)C)c(F)c(Nc3cc(C)[nH]n3)n1)C2 [Compound 8, (2-(((1R,3s,5S)-9-(ethylsulfonyl)-9-azabicyclo[3.3.1]nonan-3-yl)(methyl)amino)-5-fluoro-6-((5-methyl-1H-pyrazol-3-yl)amino)pyrimidin-4-yl)methyl isopropyl carbonate] | 50 to 100 µM (≈ 27.7 to 55.4 µg/mL) | 0.1 to 1 nM | 1 to 10 nM | 
CCC(=O)OCc1nc(N(C)[C@@H]2C[C@H]3CCC[C@@H](C2)N3S(=O)(=O)CC)nc(Nc2cc(C)[nH]n2)c1F [Compound 2, (2-(((1R,3s,5S)-9-(ethylsulfonyl)-9-azabicyclo[3.3.1]nonan-3-yl)(methyl)amino)-5-fluoro-6-((5-methyl-1H-pyrazol-3-yl)amino)pyrimidin-4-yl)methyl propionate] | 10 to 50 µM (≈ 5.24 to 26.2 µg/mL) | 0.1 to 1 nM | 0.1 to 1 nM | 
